Data taken from ChEMBL document CHEMBL4118189, “Discovery of novel N-hydroxy-2-arylisoindoline-4-carboxamides as potent and selective inhibitors of HDAC11” (Bioorg Med Chem Lett, 2018).

Experiments:
Histone deacetylase 9 = Histone deacetylase 9 (Homo sapiens, UniProt Q9UKV0); assay: Inhibition of full length recombinant human HDAC9 using fluorescent-labeled peptide as substrate by electrophoretic mobility shift assay
[1] = molecular target: T1, Protein deacetylase HDAC6 (Homo sapiens, UniProt Q9UBN7); assay: Inhibition of full length recombinant human HDAC6 using fluorescent-labeled peptide as substrate by electrophoretic mobility shift assay
T1 sequence (Q9UBN7 whole entry): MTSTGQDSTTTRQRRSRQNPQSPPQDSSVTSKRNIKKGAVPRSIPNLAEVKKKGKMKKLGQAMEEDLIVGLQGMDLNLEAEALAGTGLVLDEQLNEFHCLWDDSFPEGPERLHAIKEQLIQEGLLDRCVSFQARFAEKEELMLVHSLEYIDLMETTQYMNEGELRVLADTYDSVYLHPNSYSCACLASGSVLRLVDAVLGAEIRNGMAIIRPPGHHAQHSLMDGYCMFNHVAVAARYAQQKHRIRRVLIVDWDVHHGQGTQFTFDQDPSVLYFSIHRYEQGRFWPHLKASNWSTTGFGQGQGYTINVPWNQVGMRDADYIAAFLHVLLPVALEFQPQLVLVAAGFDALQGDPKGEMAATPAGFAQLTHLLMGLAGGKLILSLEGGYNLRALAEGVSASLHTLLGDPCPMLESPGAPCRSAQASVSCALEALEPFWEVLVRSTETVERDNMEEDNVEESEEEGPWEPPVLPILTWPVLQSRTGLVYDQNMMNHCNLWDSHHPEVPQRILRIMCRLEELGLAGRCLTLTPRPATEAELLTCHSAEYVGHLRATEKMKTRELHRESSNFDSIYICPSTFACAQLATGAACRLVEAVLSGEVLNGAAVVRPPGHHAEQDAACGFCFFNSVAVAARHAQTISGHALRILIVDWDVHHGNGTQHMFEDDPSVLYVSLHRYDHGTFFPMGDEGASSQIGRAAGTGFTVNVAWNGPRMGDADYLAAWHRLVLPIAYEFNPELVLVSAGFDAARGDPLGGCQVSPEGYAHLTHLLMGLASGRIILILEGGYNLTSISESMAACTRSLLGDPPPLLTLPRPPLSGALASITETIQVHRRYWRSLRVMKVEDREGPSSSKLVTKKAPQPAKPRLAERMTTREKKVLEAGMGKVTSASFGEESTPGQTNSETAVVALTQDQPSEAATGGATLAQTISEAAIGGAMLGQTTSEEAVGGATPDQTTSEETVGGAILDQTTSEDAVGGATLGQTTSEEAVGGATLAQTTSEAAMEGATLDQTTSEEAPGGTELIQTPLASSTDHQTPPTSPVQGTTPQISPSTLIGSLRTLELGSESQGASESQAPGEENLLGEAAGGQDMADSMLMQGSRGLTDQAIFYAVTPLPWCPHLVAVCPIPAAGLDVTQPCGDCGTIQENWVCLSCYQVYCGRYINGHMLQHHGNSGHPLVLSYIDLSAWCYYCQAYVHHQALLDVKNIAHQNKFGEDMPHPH

Sequence of Histone deacetylase 9 (Q9UKV0 whole entry): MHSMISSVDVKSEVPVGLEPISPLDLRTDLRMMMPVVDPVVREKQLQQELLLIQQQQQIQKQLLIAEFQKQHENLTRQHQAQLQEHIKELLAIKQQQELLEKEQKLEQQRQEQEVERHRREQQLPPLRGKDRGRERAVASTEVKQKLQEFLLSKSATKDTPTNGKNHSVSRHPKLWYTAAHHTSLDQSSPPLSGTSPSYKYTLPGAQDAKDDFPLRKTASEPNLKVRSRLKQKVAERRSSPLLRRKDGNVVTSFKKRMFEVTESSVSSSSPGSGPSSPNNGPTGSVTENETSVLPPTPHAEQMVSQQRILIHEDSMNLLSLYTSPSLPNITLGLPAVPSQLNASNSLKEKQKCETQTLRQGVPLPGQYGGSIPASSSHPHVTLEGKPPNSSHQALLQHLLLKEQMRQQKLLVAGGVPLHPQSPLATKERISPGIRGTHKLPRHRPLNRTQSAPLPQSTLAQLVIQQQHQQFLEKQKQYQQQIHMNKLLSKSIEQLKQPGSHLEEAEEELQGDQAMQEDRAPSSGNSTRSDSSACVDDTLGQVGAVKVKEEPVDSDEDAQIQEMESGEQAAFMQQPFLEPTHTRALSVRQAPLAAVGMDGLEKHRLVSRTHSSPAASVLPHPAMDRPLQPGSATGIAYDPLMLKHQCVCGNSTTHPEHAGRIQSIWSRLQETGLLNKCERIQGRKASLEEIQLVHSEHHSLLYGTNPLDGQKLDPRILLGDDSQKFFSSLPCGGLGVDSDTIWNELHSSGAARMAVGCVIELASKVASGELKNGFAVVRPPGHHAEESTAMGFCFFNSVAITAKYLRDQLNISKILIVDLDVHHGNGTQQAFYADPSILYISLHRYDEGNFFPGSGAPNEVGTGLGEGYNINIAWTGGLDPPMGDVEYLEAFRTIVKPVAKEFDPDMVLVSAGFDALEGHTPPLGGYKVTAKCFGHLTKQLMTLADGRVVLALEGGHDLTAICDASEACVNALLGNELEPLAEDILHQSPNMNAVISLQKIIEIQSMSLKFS

With CC1(C)c2cccc(C(N)=O)c2CN1c1cnc(C(F)(F)F)cn1 the IC50 (Histone deacetylase 9) was > 10 µM and the IC50 [1] was > 10 µM.
